From ChEMBL document CHEMBL5465560, “Selectivity Literature for EUbOPEN Chemogenomic Library” (2024)

How the values were obtained:
[1] = molecular target: Tyrosine-protein kinase JAK1 (Homo sapiens, UniProt P23458); assay: Selectivity interaction (Ambit KINOMEscan and KiNATiv profiling in Jurkat cells) EUB0000090b JAK1; type: cell-based; conditions: at 1 µM
[2] = molecular target: T1, Receptor-interacting serine/threonine-protein kinase 4 (Homo sapiens) (UniProt P57078); assay: Selectivity interaction (KinomeScan (DiscoverX)) EUB0000655a RIPK4; conditions: at 10 µM
T1 sequence (whole entry): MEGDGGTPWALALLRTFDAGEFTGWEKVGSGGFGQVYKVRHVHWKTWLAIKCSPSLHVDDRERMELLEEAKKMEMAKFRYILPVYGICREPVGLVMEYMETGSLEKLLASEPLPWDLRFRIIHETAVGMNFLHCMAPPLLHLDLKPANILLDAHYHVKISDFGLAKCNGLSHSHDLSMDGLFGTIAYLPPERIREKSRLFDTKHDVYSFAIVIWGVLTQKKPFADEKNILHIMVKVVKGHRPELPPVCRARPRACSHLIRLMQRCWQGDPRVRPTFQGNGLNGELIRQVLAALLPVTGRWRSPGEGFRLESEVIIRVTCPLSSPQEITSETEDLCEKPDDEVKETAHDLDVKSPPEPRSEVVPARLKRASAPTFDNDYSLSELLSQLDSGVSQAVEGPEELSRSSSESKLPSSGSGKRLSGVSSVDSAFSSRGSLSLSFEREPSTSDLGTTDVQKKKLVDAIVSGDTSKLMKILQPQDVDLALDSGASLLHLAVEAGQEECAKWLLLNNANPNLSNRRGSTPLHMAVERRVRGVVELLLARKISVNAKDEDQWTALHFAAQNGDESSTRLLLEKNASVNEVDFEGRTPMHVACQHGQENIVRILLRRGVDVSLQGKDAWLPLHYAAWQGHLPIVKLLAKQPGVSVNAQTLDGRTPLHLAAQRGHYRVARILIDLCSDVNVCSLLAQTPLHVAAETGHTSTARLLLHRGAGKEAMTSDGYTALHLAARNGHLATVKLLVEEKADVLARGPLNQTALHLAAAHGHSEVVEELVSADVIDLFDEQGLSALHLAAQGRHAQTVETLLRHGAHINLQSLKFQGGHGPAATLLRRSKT

[3] = molecular target: Ribosomal protein S6 kinase alpha-4 (Homo sapiens) (UniProt O75676); assay: Selectivity interaction (KinomeScan (DiscoverX)) EUB0001079a RPS6KA4; conditions: at 1 µM
Chain of Ribosomal protein S6 kinase alpha-4 (Homo sapiens) (O75676 whole entry, looked up): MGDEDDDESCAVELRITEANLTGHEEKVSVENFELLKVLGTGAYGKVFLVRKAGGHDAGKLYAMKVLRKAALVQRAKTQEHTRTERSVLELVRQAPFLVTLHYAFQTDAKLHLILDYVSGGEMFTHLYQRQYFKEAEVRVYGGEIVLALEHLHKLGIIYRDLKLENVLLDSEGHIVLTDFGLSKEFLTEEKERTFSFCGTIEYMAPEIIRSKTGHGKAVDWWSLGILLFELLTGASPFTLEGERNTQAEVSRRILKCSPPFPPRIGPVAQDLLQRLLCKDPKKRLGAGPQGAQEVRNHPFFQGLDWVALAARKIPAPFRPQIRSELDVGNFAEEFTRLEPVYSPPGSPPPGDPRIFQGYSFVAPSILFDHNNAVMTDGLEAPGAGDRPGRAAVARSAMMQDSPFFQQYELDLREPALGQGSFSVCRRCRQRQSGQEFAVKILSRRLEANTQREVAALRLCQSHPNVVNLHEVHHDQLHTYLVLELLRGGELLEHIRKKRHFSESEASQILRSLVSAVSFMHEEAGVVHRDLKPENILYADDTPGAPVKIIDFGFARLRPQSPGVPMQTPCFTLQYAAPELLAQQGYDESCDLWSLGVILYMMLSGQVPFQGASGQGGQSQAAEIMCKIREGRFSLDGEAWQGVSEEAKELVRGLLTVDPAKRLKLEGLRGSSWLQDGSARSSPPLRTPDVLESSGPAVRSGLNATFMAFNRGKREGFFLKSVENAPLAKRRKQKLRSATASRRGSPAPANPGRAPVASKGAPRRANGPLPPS

[4] = molecular target: Vascular endothelial growth factor receptor 1 (Homo sapiens) (UniProt P17948); assay: Selectivity interaction (KinomeScan (DiscoverX)) EUB0001079a FLT1; conditions: at 1 µM
Chain of Vascular endothelial growth factor receptor 1 (Homo sapiens) (P17948 whole entry, canonical isoform): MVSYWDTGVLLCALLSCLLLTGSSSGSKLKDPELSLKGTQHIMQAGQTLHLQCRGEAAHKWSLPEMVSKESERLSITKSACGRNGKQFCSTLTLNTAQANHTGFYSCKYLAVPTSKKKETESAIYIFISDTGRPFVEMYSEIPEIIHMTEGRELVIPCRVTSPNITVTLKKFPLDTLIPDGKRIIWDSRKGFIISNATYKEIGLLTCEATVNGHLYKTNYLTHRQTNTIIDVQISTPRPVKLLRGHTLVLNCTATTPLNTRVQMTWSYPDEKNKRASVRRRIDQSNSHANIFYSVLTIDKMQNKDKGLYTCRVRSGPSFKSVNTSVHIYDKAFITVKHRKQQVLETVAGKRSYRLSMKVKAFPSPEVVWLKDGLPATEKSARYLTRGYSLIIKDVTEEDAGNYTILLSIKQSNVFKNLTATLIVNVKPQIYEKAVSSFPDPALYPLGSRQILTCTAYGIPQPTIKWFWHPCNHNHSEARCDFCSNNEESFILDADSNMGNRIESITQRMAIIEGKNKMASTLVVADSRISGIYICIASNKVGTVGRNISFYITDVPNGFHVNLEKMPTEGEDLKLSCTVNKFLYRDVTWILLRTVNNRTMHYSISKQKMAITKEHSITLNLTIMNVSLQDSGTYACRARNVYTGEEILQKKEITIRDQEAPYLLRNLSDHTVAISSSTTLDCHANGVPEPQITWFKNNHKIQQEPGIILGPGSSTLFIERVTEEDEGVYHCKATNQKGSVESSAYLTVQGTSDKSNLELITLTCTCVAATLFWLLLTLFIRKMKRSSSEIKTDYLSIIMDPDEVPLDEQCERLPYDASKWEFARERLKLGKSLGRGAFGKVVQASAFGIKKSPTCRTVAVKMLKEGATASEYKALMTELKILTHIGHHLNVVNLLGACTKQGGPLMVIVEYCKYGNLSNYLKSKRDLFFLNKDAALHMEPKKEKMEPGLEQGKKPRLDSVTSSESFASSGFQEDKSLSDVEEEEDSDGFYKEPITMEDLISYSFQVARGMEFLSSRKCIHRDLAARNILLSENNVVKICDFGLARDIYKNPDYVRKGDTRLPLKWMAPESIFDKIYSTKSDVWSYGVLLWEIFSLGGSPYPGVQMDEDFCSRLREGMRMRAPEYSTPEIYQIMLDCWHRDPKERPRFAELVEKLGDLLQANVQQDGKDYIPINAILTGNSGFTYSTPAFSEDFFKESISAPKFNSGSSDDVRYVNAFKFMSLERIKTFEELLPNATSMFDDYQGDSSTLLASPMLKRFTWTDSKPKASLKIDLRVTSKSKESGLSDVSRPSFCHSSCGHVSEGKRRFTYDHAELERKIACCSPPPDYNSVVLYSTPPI

[5] = molecular target: T2, Phosphorylase b kinase gamma catalytic chain, liver/testis isoform (Homo sapiens) (UniProt P15735); assay: Selectivity interaction (KinomeScan (DiscoverX)) EUB0000618a PHKG2; conditions: at 10 µM
T2 sequence (whole entry): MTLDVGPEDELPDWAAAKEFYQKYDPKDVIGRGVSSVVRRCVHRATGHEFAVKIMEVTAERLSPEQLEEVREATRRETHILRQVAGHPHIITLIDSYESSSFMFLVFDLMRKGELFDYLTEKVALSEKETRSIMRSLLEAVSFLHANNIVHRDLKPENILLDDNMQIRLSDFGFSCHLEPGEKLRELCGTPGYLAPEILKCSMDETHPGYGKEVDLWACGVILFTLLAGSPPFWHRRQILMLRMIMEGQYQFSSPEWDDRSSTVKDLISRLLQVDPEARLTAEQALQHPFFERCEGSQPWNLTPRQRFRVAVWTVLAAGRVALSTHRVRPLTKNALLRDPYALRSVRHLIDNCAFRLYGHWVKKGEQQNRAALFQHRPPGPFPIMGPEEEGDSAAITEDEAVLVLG

[6] = molecular target: Cell division control protein 42 homolog (Homo sapiens) (UniProt P60953); assay: Selectivity interaction (SelectScreen profiling (Invitrogen)) EUB0000607a CDC42; conditions: at 2 µM
Chain of Cell division control protein 42 homolog (Homo sapiens) (P60953 whole entry, looked up, canonical isoform): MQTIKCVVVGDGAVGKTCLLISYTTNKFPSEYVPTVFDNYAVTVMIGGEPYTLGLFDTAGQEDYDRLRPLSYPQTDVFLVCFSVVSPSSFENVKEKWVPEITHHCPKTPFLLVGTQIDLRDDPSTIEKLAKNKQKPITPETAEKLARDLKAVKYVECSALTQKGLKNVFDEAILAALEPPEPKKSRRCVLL

[7] = molecular target: Casein kinase I isoform gamma-1 (Homo sapiens) (UniProt Q9HCP0); assay: Selectivity interaction (KinomeScan (DiscoverX)) EUB0000607a CSNK1G1; conditions: at 10 µM
Chain of Casein kinase I isoform gamma-1 (Homo sapiens) (Q9HCP0 whole entry, looked up, canonical isoform): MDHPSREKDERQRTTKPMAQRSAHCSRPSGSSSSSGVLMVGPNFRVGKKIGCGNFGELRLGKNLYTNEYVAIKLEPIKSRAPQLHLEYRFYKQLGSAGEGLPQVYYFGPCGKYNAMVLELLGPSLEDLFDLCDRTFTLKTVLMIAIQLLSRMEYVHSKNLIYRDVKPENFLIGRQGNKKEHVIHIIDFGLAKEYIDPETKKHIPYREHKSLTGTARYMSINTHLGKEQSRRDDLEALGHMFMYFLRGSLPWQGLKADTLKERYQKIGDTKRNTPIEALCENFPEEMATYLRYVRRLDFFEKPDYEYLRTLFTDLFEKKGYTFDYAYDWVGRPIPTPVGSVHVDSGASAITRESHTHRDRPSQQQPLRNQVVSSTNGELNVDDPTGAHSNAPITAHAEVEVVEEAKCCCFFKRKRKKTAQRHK

[8] = molecular target: Dual specificity protein kinase CLK1 (Homo sapiens, UniProt P49759); assay: Selectivity interaction (KinomeScan (DiscoverX)) EUB0000595a CLK1; conditions: at 10 µM
Chain of Dual specificity protein kinase CLK1 (P49759 whole entry, looked up): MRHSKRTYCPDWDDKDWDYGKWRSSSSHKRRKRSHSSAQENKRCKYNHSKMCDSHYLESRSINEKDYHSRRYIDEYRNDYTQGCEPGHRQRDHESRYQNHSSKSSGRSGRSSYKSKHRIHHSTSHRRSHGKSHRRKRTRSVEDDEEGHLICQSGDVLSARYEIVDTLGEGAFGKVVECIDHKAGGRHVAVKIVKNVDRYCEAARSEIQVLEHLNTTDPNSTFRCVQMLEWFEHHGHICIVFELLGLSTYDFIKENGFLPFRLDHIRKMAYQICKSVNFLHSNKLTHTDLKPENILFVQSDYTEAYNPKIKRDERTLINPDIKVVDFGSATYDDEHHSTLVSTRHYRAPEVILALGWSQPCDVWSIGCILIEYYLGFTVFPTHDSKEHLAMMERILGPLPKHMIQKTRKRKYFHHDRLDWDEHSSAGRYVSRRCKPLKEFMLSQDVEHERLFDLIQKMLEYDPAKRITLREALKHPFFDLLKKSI

[9] = molecular target: T3, Protein kinase C zeta type (Homo sapiens) (UniProt Q05513); assay: Selectivity interaction (Kinase panel (Invitrogen)) EUB0000639a PRKCZ; conditions: at 200 nM
T3 sequence (whole entry): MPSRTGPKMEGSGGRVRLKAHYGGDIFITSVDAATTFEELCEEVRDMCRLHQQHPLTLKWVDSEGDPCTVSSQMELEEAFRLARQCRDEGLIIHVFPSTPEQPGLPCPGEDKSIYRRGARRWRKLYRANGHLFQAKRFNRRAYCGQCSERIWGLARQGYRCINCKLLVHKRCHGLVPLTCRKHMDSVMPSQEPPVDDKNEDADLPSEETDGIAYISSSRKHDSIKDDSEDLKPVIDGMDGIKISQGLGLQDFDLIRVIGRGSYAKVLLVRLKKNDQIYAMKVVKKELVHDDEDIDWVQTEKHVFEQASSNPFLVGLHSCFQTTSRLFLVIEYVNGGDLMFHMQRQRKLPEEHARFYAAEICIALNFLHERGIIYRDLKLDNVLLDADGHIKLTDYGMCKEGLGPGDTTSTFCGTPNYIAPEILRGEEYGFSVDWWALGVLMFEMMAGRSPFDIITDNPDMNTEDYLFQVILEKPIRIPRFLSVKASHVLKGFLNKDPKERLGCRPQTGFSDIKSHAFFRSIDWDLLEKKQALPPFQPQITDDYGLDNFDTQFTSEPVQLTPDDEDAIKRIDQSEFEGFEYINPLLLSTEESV

[10] = molecular target: T4, Aurora kinase C (Homo sapiens) (UniProt Q9UQB9); assay: Selectivity interaction (ProQinase) EUB0000171b AURKC
T4 sequence (whole entry): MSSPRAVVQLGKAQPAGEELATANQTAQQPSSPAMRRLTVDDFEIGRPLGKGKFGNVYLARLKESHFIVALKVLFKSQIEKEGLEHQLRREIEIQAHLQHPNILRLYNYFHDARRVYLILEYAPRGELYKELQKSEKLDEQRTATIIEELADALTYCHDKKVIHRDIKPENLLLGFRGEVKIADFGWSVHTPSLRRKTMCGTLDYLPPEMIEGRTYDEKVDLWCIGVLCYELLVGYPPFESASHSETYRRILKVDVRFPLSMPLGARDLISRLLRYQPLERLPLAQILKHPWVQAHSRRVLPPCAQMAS

Chain of Tyrosine-protein kinase JAK1 (P23458 whole entry): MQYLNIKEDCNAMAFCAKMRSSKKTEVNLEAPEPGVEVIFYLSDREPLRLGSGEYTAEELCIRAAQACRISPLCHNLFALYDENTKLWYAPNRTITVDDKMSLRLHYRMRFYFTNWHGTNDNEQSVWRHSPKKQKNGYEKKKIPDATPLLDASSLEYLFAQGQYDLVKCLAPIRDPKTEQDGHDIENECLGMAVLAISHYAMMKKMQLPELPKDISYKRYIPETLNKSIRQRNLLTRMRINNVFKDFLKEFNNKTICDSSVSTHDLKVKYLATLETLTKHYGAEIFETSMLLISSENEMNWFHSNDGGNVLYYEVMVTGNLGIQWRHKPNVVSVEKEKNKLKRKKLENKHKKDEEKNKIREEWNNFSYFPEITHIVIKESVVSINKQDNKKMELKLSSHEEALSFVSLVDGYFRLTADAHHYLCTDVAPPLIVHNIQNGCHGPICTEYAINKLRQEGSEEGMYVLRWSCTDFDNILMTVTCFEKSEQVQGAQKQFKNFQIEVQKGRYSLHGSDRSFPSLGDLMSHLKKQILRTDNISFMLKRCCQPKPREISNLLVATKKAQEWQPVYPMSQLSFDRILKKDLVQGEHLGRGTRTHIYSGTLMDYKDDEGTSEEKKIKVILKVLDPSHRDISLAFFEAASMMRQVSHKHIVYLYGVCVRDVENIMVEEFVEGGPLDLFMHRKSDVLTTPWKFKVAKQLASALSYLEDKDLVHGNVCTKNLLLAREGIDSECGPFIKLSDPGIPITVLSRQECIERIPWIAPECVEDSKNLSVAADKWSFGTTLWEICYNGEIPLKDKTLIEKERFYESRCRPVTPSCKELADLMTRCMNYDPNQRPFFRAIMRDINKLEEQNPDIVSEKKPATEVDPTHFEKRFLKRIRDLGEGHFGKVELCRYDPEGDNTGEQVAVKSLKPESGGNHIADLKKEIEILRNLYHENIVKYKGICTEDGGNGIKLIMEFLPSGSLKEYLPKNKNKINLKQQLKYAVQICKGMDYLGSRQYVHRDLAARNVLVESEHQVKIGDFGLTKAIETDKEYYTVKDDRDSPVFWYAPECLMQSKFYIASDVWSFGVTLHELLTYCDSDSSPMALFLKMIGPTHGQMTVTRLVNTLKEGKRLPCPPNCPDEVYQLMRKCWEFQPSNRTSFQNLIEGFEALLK

CN(C)C/C=C/C(=O)Nc1ccc(C(=O)N2CCCC(Nc3ncc(Cl)c(-c4c[nH]c5ccccc45)n3)C2)cc1 (stereo unspecified)
% of control [1]: 70%

CN(C)CCOc1ccc(-c2nc(-c3ccncc3)c(-c3ccc4c(c3)CC/C4=N\O)[nH]2)cc1
% of control [2]: 100%

Nc1cnc(N2CCc3cc(S(=O)(=O)Nc4c(F)cc(Cl)cc4F)cc(N4CCCC4=O)c32)nc1 [TP-020n]
% of control [3]: 100%
% of control [4]: 93%

O[C@H]1CC[C@H](Nc2ncc3nc(Nc4c(F)cc(F)cc4F)n([C@H]4CCOC4)c3n2)CC1
% of control [5]: 99%

CNC(=O)Nc1ccc(-c2nc(N3CC4CCC(C3)O4)c3cnn(C4CCC5(CC4)OCCO5)c3n2)cc1
% of inhibition [6]: 7%
% of control [7]: 54%

COCC(=O)NC/C=C/c1ccc2ncnc(Nc3ccc(Oc4ccc(C)nc4)c(C)c3)c2c1 [CP-724714]
% of control [8]: 90%

CC[C@@H]1[C@H](F)C(=O)N[C@@H]1COc1nccc2cc(C(N)=O)c(OC)cc12 [ZIMLOVISERTIB]
% of inhibition [9]: 6.26%

C=CC(=O)Nc1cccc(C(=O)Nc2ccc(Nc3cc(-c4[nH]c(SC)nc4C)ccn3)cc2)c1
% of control ([10]; at 1 µM): 86%
% of control ([10]; at 5 µM): 57%
